Measured values from patent EP1799188B1, “USE OF PEPTIDES AS AN ANTIOXIDANT AGENT FOR THE PREPARATION OF A COSMETIC AND/OR PHARMACEUTICAL COMPOSITION” (Ashland Specialties France, priority 2004, dated 2015).

Test system: fibroblastes primaires
Experiment: Neutral red uptake cytotoxicity / cell viability test
Assay type: cell-based
Settings: actif 1 %
Procedure: Des fibroblastes primaires sont ensemencés sur une plaque 96 puits (à 20000 cellules par puits environ). Une fois que les cellules ont atteint 70 % de confluence, le dipeptide dimérisé Cys-Gly selon l'invention, dilué à 1 %, est appliqué sur la plaque durant 24 heures. Une moitié de la plaque est alors irradiée par des UVB à 100 mJ/cm^2 et l'autre moitié non irradiée. Les cellules sont ensuite remises en culture pendant 24 h en présence de l'actif, puis incubées en présence de rouge neutre.
Le rouge neutre (un colorant « supravital ») se fixe spécifiquement aux lysosomes des cellules vivantes, la coloration sera ainsi proportionnelle à la viabilité des cellules. Après l'ajout d'une solution de révélation, solubilisant le rouge neutre, l'absorbance est mesurée à 540 nm.
Les résultats obtenus, représentés dans le tableau ci-dessous, représentent le pourcentage de viabilité cellulaire en fonction des différentes conditions étudiées, par rapport à la condition contrôle.

SMILES: N[C@@H](CSSC[C@H](N)C(=O)NCC(=O)O)C(=O)NCC(=O)O [actif]
- cytotoxicité (nocivité pour les cellules): n'est pas nocif pour les cellules
